Measured values reported in US20260007758A1, “SO[…]-2 RECEPTOR (SST2R) NON-PEPTIDE DRUG CONJUGATES AND USES THEREOF” (Crinetics Pharmaceuticals, Inc., priority 2024, published 2026).
Where two headings read alike, the source gives them in different places.

Legend:
Assay type in all cases: cell-based
[1] = tested on: NCI-H524 human small cell lung cancer cells; assay: H524 assay: inhibition of cell proliferation (CellTiter Glo); conditions: 2 h treatment, washout, additional 70 h incubation
Procedure, shortened: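 NCI-H524 cells were exposed for 2 h to NDC in an 11-point two-fold series starting at 1 uM. The drug was then washed out and cells grew a further 70 h. CellTiter Glo luminescence gave % inhibition versus untreated control, and IC50 came from a four-parameter nonlinear regression.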

SST2 = molecular target: T1, SST2 (Homo sapiens, UniProt P30874); assay: PathHunter CHO-K1 SST2 Internalization Assay; conditions: PathHunter CHO-K1 SST2 cells, 90 min at 37 C, luminescence
T1 construct: host or cells: PathHunter CHO-K1 SST2 cells
T1 sequence (P30874 whole entry): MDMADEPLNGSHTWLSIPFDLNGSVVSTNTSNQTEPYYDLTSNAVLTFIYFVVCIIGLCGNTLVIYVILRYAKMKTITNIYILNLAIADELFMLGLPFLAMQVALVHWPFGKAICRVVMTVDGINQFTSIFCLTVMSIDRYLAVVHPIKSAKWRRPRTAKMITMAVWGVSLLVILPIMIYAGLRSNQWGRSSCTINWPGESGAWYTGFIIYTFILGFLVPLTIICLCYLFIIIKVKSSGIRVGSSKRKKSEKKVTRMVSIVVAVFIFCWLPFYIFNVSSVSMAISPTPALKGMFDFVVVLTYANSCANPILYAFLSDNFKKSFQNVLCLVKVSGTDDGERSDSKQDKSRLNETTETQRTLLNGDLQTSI
Procedure, shortened: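 CHO-K1 cells expressing human SST2, 2500 cells/well, grown 48 h, then exposed 90 min at 37 C to 11-point 1:3 NDC dilutions (final top 10 uM). Beta-Glo luminescence after 60 min at room temperature; four-parameter IC50, duplicate mean, background-corrected.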

[2] = molecular target: T2, human somatostatin receptor subtype 2 (Homo sapiens, UniProt P30874); assay: Functional assay for SSTR2 agonists (HTRF cAMP); conditions: CHO-K1 cells stably expressing human SST2, NKH477-stimulated cAMP, 20 min at 37 C
T2 construct: expressed in transfected cells
T2 sequence (P30874 whole entry): as above
Procedure, shortened: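 CHO-K1 cells stably expressing human SSTR2 treated with compound (typically 0-10,000 nM final) for 20 min at 37 °C. Lysate cAMP measured by HTRF (665/620 nm ratio), converted via standard curve; EC50 from cAMP vs concentration.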

Row | SMILES | EC50 [1] [nM] | EC50 (SST2; read-out: Internalization EC50) [nM] | EC50 ([2]; read-out: hSST2 cAMP Avg EC50) [nM] | EC50 (SST2; Internalization EC50 (nM)) [nM] | EC50 ([2]; hSST2 cAMP Avg EC50 (nM)) [nM]
1 | CC[C@H](C)[C@@H]([C@@H](CC(=O)N1CCC[C@H]1[C@H](OC)[C@@H](C)C(=O)N[C@H](C)[C@@H](O)c1ccccc1)OC)N(C)C(=O)[C@@H](NC(=O)[C@H](C(C)C)N(C)C(=O)OCc1ccc(NC(=O)[C@H](CCCNC(N)=O)NC(=O)[C@@H](NC(=O)[C@H](Cc2c[nH]cn2)NC(=O)CCOCCC(=O)NCCNc2ncc(-c3cc(C)cc(F)c3)c(N3CCC(N)CC3)c2-c2nc3ccc(Cl)cc3[nH]2)C(C)C)c(O[C@@H]2C[C@H](C(=O)O)[C@@H](O)[C@H](O)[C@H]2O)c1)C(C)C [Compound 243] | 17 | 3.2 | 0.082 | – | –
2 | CC[C@H](C)[C@@H]([C@@H](CC(=O)N1CCC[C@H]1[C@H](OC)[C@@H](C)C(=O)N[C@H](C)[C@@H](O)c1ccccc1)OC)N(C)C(=O)[C@@H](NC(=O)[C@H](C(C)C)N(C)C(=O)OCc1ccc(NC(=O)[C@H](CCCNC(N)=O)NC(=O)[C@@H](NC(=O)c2cc(NC(=O)CCOCCC(=O)N(C)CC(=O)NCCNc3ncc(-c4cc(C)cc(F)c4)c(N4CCC(N)CC4)c3-c3nc4ccc(Cl)cc4[nH]3)cc(C(=O)NC[C@@H](O)C(=O)O)c2)C(C)C)cc1)C(C)C [Compound 244] | 55 | 4 | 0.26 | – | –
3 | CC[C@@H](C)[C@H]([C@H](CC(=O)N1CCC[C@@H]1[C@@H](OC)[C@H](C)C(=O)N[C@@H](C)[C@H](O)c1ccccc1)OC)N(C)C(=O)[C@H](NC(=O)[C@@H](C(C)C)N(C)C(=O)OCc1ccc(NC(=O)[C@@H](CCCNC(N)=O)NC(=O)[C@H](NC(=O)[C@@H](CCC(=O)O)NC(=O)CCOCCOCCNC(=O)CCc2cn(CCCC[C@H](NC(=O)CCOCCC(=O)NCCNc3ncc(-c4cc(C)cc(F)c4)c(N4CCC(N)CC4)c3-c3nc4ccc(Cl)cc4[nH]3)C(=O)NCCOCCOCCC(=O)N[C@@H](CCC(=O)O)C(=O)N[C@H](C(=O)N[C@@H](CCCNC(N)=O)C(=O)Nc3ccc(COC(=O)N(C)[C@H](C(=O)N[C@H](C(=O)N(C)[C@@H]([C@@H](C)CC)[C@@H](CC(=O)N4CCC[C@H]4[C@H](OC)[C@@H](C)C(=O)N[C@H](C)[C@@H](O)c4ccccc4)OC)C(C)C)C(C)C)cc3)C(C)C)nn2)C(C)C)cc1)C(C)C [Compound 245] | 140 | – | – | 440 | 11
4 | CC[C@H](C)[C@@H]([C@@H](CC(=O)N1CCC[C@H]1[C@H](OC)[C@@H](C)C(=O)N[C@H](C)[C@@H](O)c1ccccc1)OC)N(C)C(=O)[C@@H](NC(=O)[C@H](C(C)C)N(C)C(=O)OCc1ccc(NC(=O)[C@H](CCCNC(N)=O)NC(=O)[C@@H](NC(=O)CCOCCC(=O)NCCNc2ncc(-c3cc(C)cc(F)c3)c(N3CCC(N)CC3)c2-c2nc3ccc(Cl)cc3[nH]2)C(C)C)cc1C(=O)N[C@@H](CCCCNC(=O)CCCCc1ccc(I)cc1)C(=O)O)C(C)C [Compound 246] | 74 | 1.5 | 0.1 | – | –
5 | CC[C@H](C)[C@@H]([C@@H](CC(=O)N1CCC[C@H]1[C@H](OC)[C@@H](C)C(=O)N[C@H](C)[C@@H](O)c1ccccc1)OC)N(C)C(=O)[C@@H](NC(=O)[C@H](C(C)C)N(C)C(=O)OCc1ccc(NC(=O)[C@H](CCCNC(N)=O)NC(=O)[C@@H](NC(=O)CCOCCC(=O)NCCNc2ncc(-c3cc(C)cc(F)c3)c(N3CCC(N)CC3)c2-c2nc3ccc(Cl)cc3[nH]2)C(C)C)cc1C(=O)N[C@@H](CCCNC(=O)CCCCc1ccc(I)cc1)C(=O)O)C(C)C [Compound 247] | 18 | 1.4 | 0.19 | – | –
6 | CC[C@H](C)[C@@H]([C@@H](CC(=O)N1CCCC1[C@H](OC)[C@@H](C)C(=O)N[C@H](C)[C@@H](O)c1ccccc1)OC)N(C)C(=O)[C@@H](NC(=O)[C@H](C(C)C)N(C)C(=O)OCc1ccc(O[C@@H]2O[C@H](C(=O)O)[C@@H](O)[C@H](O)[C@H]2O)c(NC(=O)[C@H](C)NC(=O)[C@@H](NC(=O)CCOCCC(=O)NCCNc2ncc(-c3cc(C)cc(F)c3)c(N3CCC(N)CC3)c2-c2nc3ccc(Cl)cc3[nH]2)C(C)C)c1)C(C)C (stereo partly drawn) [Compound 249] | 9.8 | 4.5 | 0.086 | – | –
